ChEMBL document CHEMBL4840357, “Functionalized Dioxonaphthoimidazoliums: A Redox Cycling Chemotype with Potent Bactericidal Activities against Mycobacterium tuberculosis” (J Med Chem, 2021)
In brackets after ≈: the same amount, converted by molar mass.

system: Mycobacterium tuberculosis variant bovis BCG; assay: Antimycobacterial activity against Mycobacterium bovis BCG ATCC 35734 incubated for 5 days by broth dilution method; type: functional; conditions: ATCC 35734, 120 h, time 5 day

Structure (SMILES)	MIC90 [µM]	MIC50 [µM]
CCCn1c2c([n+](CCC)c1C)C(=O)c1ccccc1C2=O	25	
CCCCCCn1c2c([n+](CCCCCC)c1C)C(=O)c1cccnc1C2=O	2.3	
CCCCn1c2c([n+](C3CCCCCCC3)c1C)C(=O)c1ccccc1C2=O	0.6	
CCCCn1c(C)nc2c1C(=O)c1ccccc1C2=O	> 50	
CCCCCCCCCCn1c2c([n+](C(C)CC)c1C)C(=O)c1ccccc1C2=O (stereo unspecified)	0.52	
CCCn1c2c([n+](C(C)CC)c1C)C(=O)c1ccccc1C2=O (stereo unspecified)	5.5	
CCCCCCCCn1c2c([n+](CCCCCCCC)c1C)C(=O)c1ccncc1C2=O	1.1	
CCCn1c2c([n+](CC)c1C)C(=O)c1ccccc1C2=O	8.3	
CC(C)/N=c1\cc2n(-c3ccc(Cl)cc3)c3ccccc3nc-2cc1Nc1ccc(Cl)cc1 [CLOFAZIMINE]	0.4 (≈ 0.189 µg/mL)	0.2 (≈ 0.0947 µg/mL)
CC[n+]1c2c(n(CC(C)C)c1C)C(=O)c1ccccc1C2=O	4.9	
CCC(C)[n+]1c2c(n(CC(C)C)c1C)C(=O)c1ccccc1C2=O (stereo unspecified)	3.6	
CCCCn1c2c([n+](C(C)CC)c1C)C(=O)c1ccccc1C2=O (stereo unspecified)	3.1	
CCCCCCCCCCCC[n+]1c2c(n(CC(C)C)c1C)C(=O)c1ccccc1C2=O	0.54	
CCCCn1c2c([n+](C3CCCCC3)c1C)C(=O)c1ccccc1C2=O	1.4	
CCCCCCCCCCCCn1c2c([n+](CCCCCCCCCCCC)c1C)C(=O)c1ccccc1C2=O	4.8	
CCCCCn1c(C)nc2c1C(=O)c1ccccc1C2=O	39 (≈ 11 µg/mL)	
CCCn1c2c([n+](C(C)C)c1C)C(=O)c1ccccc1C2=O	21	
CCC(C)[n+]1c2c(n(C3CC3)c1C)C(=O)c1ccccc1C2=O (stereo unspecified)	13	
CCCCn1c2c([n+](CC3CCCCC3)c1C)C(=O)c1ccccc1C2=O	0.35	
CCCCCCCCn1c(C)[n+](CCCC)c2ccccc21	> 50	
CC[n+]1c2c(n(C)c1C)C(=O)c1ccccc1C2=O	22	
CCCCCCCCCC[n+]1c2c(n(CC(C)C)c1C)C(=O)c1ccccc1C2=O	0.36	
CCCCCCCCn1c2c([n+](CCCCCCCC)c1C)C(=O)c1ccccc1C2=O	0.88	

Structure (SMILES)	MIC90 [µM]	MIC50 [µM]
Cc1n(C2CC2)c2c([n+]1C1CC1)C(=O)c1ccccc1C2=O	37	
CCCCCCCCn1c2c([n+](CCCCCC)c1C)C(=O)c1ccccc1C2=O	0.34	
CCCCn1c2c([n+](CCCC)c1C)C(=O)c1ccccc1C2=O	1.9	
CCC(C)[n+]1c2c(n(C)c1C)C(=O)c1ccccc1C2=O (stereo unspecified)	13	
CCCCCCCCCn1c2c([n+](CCCCCCCCC)c1C)C(=O)c1ccncc1C2=O	2.6	
CCCCn1c2c([n+](Cc3ccccc3)c1C)C(=O)c1ccccc1C2=O	0.43	
CCC(C)[n+]1c2c(n(C(C)C)c1C)C(=O)c1ccccc1C2=O (stereo unspecified)	11	
CCCCCC[n+]1c2c(n(CCCC)c1C)C(=O)c1ccccc1C2=O	0.43	
CCCCCCCCCCn1c2c([n+](CCCCCCCCCC)c1C)C(=O)c1ccccc1C2=O	3.1	
CCCn1c(C)nc2c1C(=O)c1ccccc1C2=O	> 50	
CCCCCCCCn1c2c([n+](CCCCCCCC)c1C)C(=O)c1cccnc1C2=O	10	
CCCCn1c2c([n+](CCCN3CCOCC3)c1C)C(=O)c1ccccc1C2=O	13	
NNC(=O)c1ccncc1 [ISONIAZID]		1.6 (≈ 0.219 µg/mL)
CCn1c2c([n+](C3CC3)c1C)C(=O)c1ccccc1C2=O	15	
Cc1n(CC(C)C)c2c([n+]1C1CC1)C(=O)c1ccccc1C2=O	6	
CCCCCCCCn1c2c([n+](C(C)CC)c1C)C(=O)c1ccccc1C2=O (stereo unspecified)	0.46	
CCC[n+]1c2c(n(C)c1C)C(=O)c1ccccc1C2=O	18	
CCCCn1c(C)nc2ccccc21	> 50	
CCCCCCn1c2c([n+](CCCCCC)c1CC)C(=O)c1ccccc1C2=O	0.52	
Cc1n(C(C)C)c2c([n+]1C(C)C)C(=O)c1ccccc1C2=O	25	
CCCCCCCCCCCCn1c(C)nc2ccccc21	10 (≈ 3 µg/mL)	
CCCC[n+]1c2c(n(C)c1C)C(=O)c1ccccc1C2=O	6.7	
